# Experimental data: patent US11395490B2, “Herbicidal composition” (SYNGENTA CROP PROTECTION, LLC, priority 2005, dated 2022)
# Experiments:
# Format in all cases: in vivo
# Details in all cases: 21 days after treatment
# [1] = system: Ipomea purpurea (PHBPU); test: Post-emergence test, Ipomea purpurea
# From the text: (§1) The herbicidal action to be expected, We, for a given combination of two herbicides can be calculated as follows (see COLBY, S. R. “Calculating synergistic and antagonistic response of herbicide combinations”. Weeds 15, pages 20-22; 1967): We=X+[Y·(100−X)/100] wherein: X=% herbicidal action in the case of treatment with active ingredient (A) using an application rate of p kg per hectare, in comparison with untreated control (=0%). Y=% herbicidal action in the case of treatment with active ingredient (B) using an application rate of q kg per hectare, in comparison with untreated control. We=expected herbicidal action (% herbicidal action in comparison with untreated control) after treatment with active ingredient (A) and active ingredient (B) at a rate of application of p+q kg of active ingredient per hectare. If the action actually observed is greater than the expected value We, there is a synergistic effect. Trial Description, Pre-Emergence Test: Monocotyledonous and dicotyledonous test plants are sown in standard soil in plastics pots. The plants tested were: Maize (ZEAMX), Ipomea purpurea (PHBPU), Euphorbia heterophylla (EPHHL), Panicum millenacearum (PANMI). Immediately after sowing, the test compounds in aqueous suspension are applied by spraying (200 litres of water/ha). (A) was formulated as a SC50, and (B1), (B2) and (B3) were formulated as WP25; 1% adjuvant crop oil concentrate (Agridex) (v/v) was added to all treatments. The compounds were applied alone and in combination as tank mixtures. The rates of application depend on the optimum concentrations determined under field conditions and greenhouse conditions. The test plants are then cultivated in a greenhouse under optimum conditions. Evaluation of the tests is made after 21 days (% action, 100%=plants have died, 0%=no phytotoxic action).
# (§2) Trial Description Post-Emergence Test: The test plants are raised in plastics pots under greenhouse conditions as far as the 2- to 3-leaf stage. A standard soil is used as the cultivation substrate. The plants tested were: Maize (ZEAMX), Ipomea purpurea (PHBPU), Sorghum vulgare (SORVU), Euphorbia heterophylla (EPHHL), Panicum millenacearum (PANMI). At the 2- to 3-leaf stage, the herbicides are applied individually and as mixtures to the test plants. The test compounds are applied in the form of an aqueous suspension in 200 litres of water/ha. (A) was formulated as a SC50, and (B1), (B2) and (B3) were formulated as WP25; 1% adjuvant crop oil concentrate (Agridex) (v/v) was added to all treatments. The compounds were applied alone and in combination as tank mixtures. The rates of application depend on the optimum concentrations determined under field conditions and greenhouse conditions. Evaluation of the tests is made after 21 days (% action, 100%=plants have died, 0%=no phytotoxic action).
# [2] = system: Panicum millenacearum (PANMI); test: Post-emergence test, Panicum millenacearum
# From the text: as §1, §2
# [3] = system: Sorghum vulgare (SORVU); test: Post-emergence test, Sorghum vulgare
# From the text: as §1, §2
# [4] = system: Panicum millenacearum (PANMI); test: Pre-emergence test, Panicum millenacearum
# From the text: as §1
# [5] = system: Maize (ZEAMX); test: Post-emergence test, Maize
# From the text: as §1, §2
# [6] = system: Euphorbia heterophylla (EPHHL); test: Post-emergence test, Euphorbia heterophylla
# From the text: as §1, §2
# [7] = system: Maize (ZEAMX); test: Pre-emergence test, Maize
# From the text: as §1
# [8] = system: Euphorbia heterophylla (EPHHL); test: Pre-emergence test, Euphorbia heterophylla
# From the text: as §1
# [9] = system: Ipomea purpurea (PHBPU); test: Pre-emergence test, Ipomea purpurea
# From the text: as §1
compound,measurement,setting,value
"Cn1nc(C(F)(F)F)c(CS(=O)(=O)C2=NOC(C)(C)C2)c1OC(F)F [(A), 3-[[[5-(difluoromethoxy)-1-methyl-3-(trifluoromethyl)-1H-pyrazol-4-yl]methyl]-sulfonyl]-4,5-dihydro-5,5-dimethyl-isoxazole]",Observed plant damage PHBPU,[1]; rate 12.5 g/ha,0%
same,Observed plant damage PHBPU,[1]; rate 25 g/ha,20%
same,Observed plant damage PHBPU,[1]; rate 50 g/ha,20%
same,Observed plant damage PHBPU,[1]; rate 100 g/ha,75%
same,Observed plant damage PHBPU,[1]; rate 200 g/ha,85%
same,Observed plant damage PANMI,[2]; rate 12.5 g/ha,0%
same,Observed plant damage PANMI,[2]; rate 25 g/ha,35%
same,Observed plant damage PANMI,[2]; rate 50 g/ha,65%
same,Observed plant damage PANMI,[2]; rate 100 g/ha,65%
same,Observed plant damage PANMI,[2]; rate 200 g/ha,75%
same,Observed plant damage SORVU,[3]; rate 12.5 g/ha,0%
same,Observed plant damage SORVU,[3]; rate 25 g/ha,0%
same,Observed plant damage SORVU,[3]; rate 50 g/ha,0%
same,Observed plant damage SORVU,[3]; rate 100 g/ha,0%
same,Observed plant damage SORVU,[3]; rate 200 g/ha,0%
same,Observed plant damage PANMI,[4]; rate 12.5 g/ha,0%
same,Observed plant damage PANMI,[4]; rate 25 g/ha,0%
same,Observed plant damage PANMI,[4]; rate 50 g/ha,70%
same,Observed plant damage PANMI,[4]; rate 100 g/ha,100%
same,Observed plant damage PANMI,[4]; rate 200 g/ha,100%
same,Observed plant damage ZEAMX,[5]; rate 12.5 g/ha,0%
same,Observed plant damage ZEAMX,[5]; rate 25 g/ha,0%
same,Observed plant damage ZEAMX,[5]; rate 50 g/ha,0%
same,Observed plant damage ZEAMX,[5]; rate 100 g/ha,0%
same,Observed plant damage ZEAMX,[5]; rate 200 g/ha,0%
same,Observed plant damage EPHHL,[6]; rate 12.5 g/ha,0%
same,Observed plant damage EPHHL,[6]; rate 25 g/ha,0%
same,Observed plant damage EPHHL,[6]; rate 50 g/ha,15%
same,Observed plant damage EPHHL,[6]; rate 100 g/ha,35%
same,Observed plant damage EPHHL,[6]; rate 200 g/ha,40%
same,Observed plant damage ZEAMX,[7]; rate 12.5 g/ha,0%
same,Observed plant damage ZEAMX,[7]; rate 25 g/ha,0%
same,Observed plant damage ZEAMX,[7]; rate 50 g/ha,0%
same,Observed plant damage ZEAMX,[7]; rate 100 g/ha,0%
same,Observed plant damage ZEAMX,[7]; rate 200 g/ha,0%
same,Observed plant damage EPHHL,[8]; rate 12.5 g/ha,0%
same,Observed plant damage EPHHL,[8]; rate 25 g/ha,0%
same,Observed plant damage EPHHL,[8]; rate 50 g/ha,15%
same,Observed plant damage EPHHL,[8]; rate 100 g/ha,40%
same,Observed plant damage EPHHL,[8]; rate 200 g/ha,75%
same,Observed plant damage PHBPU,[9]; rate 12.5 g/ha,0%
same,Observed plant damage PHBPU,[9]; rate 25 g/ha,0%
same,Observed plant damage PHBPU,[9]; rate 50 g/ha,0%
same,Observed plant damage PHBPU,[9]; rate 100 g/ha,75%
same,Observed plant damage PHBPU,[9]; rate 200 g/ha,95%
"COCCOCc1nc(C(F)(F)F)ccc1C(=O)C1C(=O)C2CCC(C2)C1=O (stereo not drawn) [(B1), 4-hydroxy-3-[[2-[(2-methoxyethoxy)methyl]-6-(trifluoromethyl)-3-pyridinyl]carbonyl]-bicyclo[3.2.1]oct-3-en-2-one]",Observed plant damage PHBPU,[1]; rate 18.75 g/ha,30%
same,Observed plant damage PHBPU,[1]; rate 37.5 g/ha,50%
same,Observed plant damage PHBPU,[1]; rate 75 g/ha,55%
same,Observed plant damage PHBPU,[1]; rate 150 g/ha,70%
same,Observed plant damage PHBPU,[1]; rate 300 g/ha,70%
same,Observed plant damage PANMI,[2]; rate 18.75 g/ha,60%
same,Observed plant damage PANMI,[2]; rate 37.5 g/ha,70%
same,Observed plant damage PANMI,[2]; rate 75 g/ha,75%
same,Observed plant damage PANMI,[2]; rate 150 g/ha,70%
same,Observed plant damage PANMI,[2]; rate 300 g/ha,90%
same,Observed plant damage SORVU,[3]; rate 18.75 g/ha,0%
same,Observed plant damage SORVU,[3]; rate 37.5 g/ha,0%
same,Observed plant damage SORVU,[3]; rate 75 g/ha,0%
same,Observed plant damage SORVU,[3]; rate 150 g/ha,10%
same,Observed plant damage SORVU,[3]; rate 300 g/ha,35%
same,Observed plant damage PANMI,[4]; rate 18.75 g/ha,15%
same,Observed plant damage PANMI,[4]; rate 37.5 g/ha,65%
same,Observed plant damage PANMI,[4]; rate 75 g/ha,80%
same,Observed plant damage PANMI,[4]; rate 150 g/ha,100%
same,Observed plant damage PANMI,[4]; rate 300 g/ha,100%
same,Observed plant damage ZEAMX,[5]; rate 18.75 g/ha,0%
same,Observed plant damage ZEAMX,[5]; rate 37.5 g/ha,0%
same,Observed plant damage ZEAMX,[5]; rate 75 g/ha,0%
same,Observed plant damage ZEAMX,[5]; rate 150 g/ha,0%
same,Observed plant damage ZEAMX,[5]; rate 300 g/ha,0%
same,Observed plant damage EPHHL,[6]; rate 18.75 g/ha,65%
same,Observed plant damage EPHHL,[6]; rate 37.5 g/ha,80%
same,Observed plant damage EPHHL,[6]; rate 75 g/ha,90%
same,Observed plant damage EPHHL,[6]; rate 150 g/ha,90%
same,Observed plant damage EPHHL,[6]; rate 300 g/ha,98%
same,Observed plant damage ZEAMX,[7]; rate 18.75 g/ha,0%
same,Observed plant damage ZEAMX,[7]; rate 37.5 g/ha,0%
same,Observed plant damage ZEAMX,[7]; rate 75 g/ha,0%
same,Observed plant damage ZEAMX,[7]; rate 150 g/ha,0%
same,Observed plant damage ZEAMX,[7]; rate 300 g/ha,0%
same,Observed plant damage EPHHL,[8]; rate 18.75 g/ha,0%
same,Observed plant damage EPHHL,[8]; rate 37.5 g/ha,0%
same,Observed plant damage EPHHL,[8]; rate 75 g/ha,75%
same,Observed plant damage EPHHL,[8]; rate 150 g/ha,75%
same,Observed plant damage EPHHL,[8]; rate 300 g/ha,100%
same,Observed plant damage PHBPU,[9]; rate 18.75 g/ha,0%
same,Observed plant damage PHBPU,[9]; rate 37.5 g/ha,0%
same,Observed plant damage PHBPU,[9]; rate 75 g/ha,0%
same,Observed plant damage PHBPU,[9]; rate 150 g/ha,0%
same,Observed plant damage PHBPU,[9]; rate 300 g/ha,85%
"CS(=O)(=O)c1ccc(C(=O)C2C(=O)CCCC2=O)c(Cl)c1COCC(F)(F)F [(B2), tembotrione]",Observed plant damage PHBPU,[1]; rate 18.75 g/ha,0%
same,Observed plant damage PHBPU,[1]; rate 37.5 g/ha,25%
same,Observed plant damage PHBPU,[1]; rate 75 g/ha,55%
same,Observed plant damage PHBPU,[1]; rate 150 g/ha,60%
same,Observed plant damage PHBPU,[1]; rate 300 g/ha,60%
same,Observed plant damage PANMI,[2]; rate 18.75 g/ha,0%
same,Observed plant damage PANMI,[2]; rate 37.5 g/ha,20%
same,Observed plant damage PANMI,[2]; rate 75 g/ha,20%
same,Observed plant damage PANMI,[2]; rate 150 g/ha,65%
same,Observed plant damage PANMI,[2]; rate 300 g/ha,50%
same,Observed plant damage SORVU,[3]; rate 18.75 g/ha,0%
same,Observed plant damage SORVU,[3]; rate 37.5 g/ha,0%
same,Observed plant damage SORVU,[3]; rate 75 g/ha,0%
same,Observed plant damage SORVU,[3]; rate 150 g/ha,0%
same,Observed plant damage SORVU,[3]; rate 300 g/ha,0%
same,Observed plant damage PANMI,[4]; rate 18.75 g/ha,0%
same,Observed plant damage PANMI,[4]; rate 37.5 g/ha,0%
same,Observed plant damage PANMI,[4]; rate 75 g/ha,0%
same,Observed plant damage PANMI,[4]; rate 150 g/ha,40%
same,Observed plant damage PANMI,[4]; rate 300 g/ha,98%
same,Observed plant damage ZEAMX,[5]; rate 18.75 g/ha,0%
same,Observed plant damage ZEAMX,[5]; rate 37.5 g/ha,0%
same,Observed plant damage ZEAMX,[5]; rate 75 g/ha,0%
same,Observed plant damage ZEAMX,[5]; rate 150 g/ha,0%
same,Observed plant damage ZEAMX,[5]; rate 300 g/ha,0%
same,Observed plant damage EPHHL,[6]; rate 18.75 g/ha,65%
same,Observed plant damage EPHHL,[6]; rate 37.5 g/ha,75%
same,Observed plant damage EPHHL,[6]; rate 75 g/ha,80%
same,Observed plant damage EPHHL,[6]; rate 150 g/ha,98%
same,Observed plant damage EPHHL,[6]; rate 300 g/ha,100%
same,Observed plant damage ZEAMX,[7]; rate 18.75 g/ha,0%
same,Observed plant damage ZEAMX,[7]; rate 37.5 g/ha,0%
same,Observed plant damage ZEAMX,[7]; rate 75 g/ha,0%
same,Observed plant damage ZEAMX,[7]; rate 150 g/ha,0%
same,Observed plant damage ZEAMX,[7]; rate 300 g/ha,0%
same,Observed plant damage EPHHL,[8]; rate 18.75 g/ha,0%
same,Observed plant damage EPHHL,[8]; rate 37.5 g/ha,0%
same,Observed plant damage EPHHL,[8]; rate 75 g/ha,0%
same,Observed plant damage EPHHL,[8]; rate 150 g/ha,100%
same,Observed plant damage EPHHL,[8]; rate 300 g/ha,100%
same,Observed plant damage PHBPU,[9]; rate 18.75 g/ha,0%
same,Observed plant damage PHBPU,[9]; rate 37.5 g/ha,0%
same,Observed plant damage PHBPU,[9]; rate 75 g/ha,0%
same,Observed plant damage PHBPU,[9]; rate 150 g/ha,20%
same,Observed plant damage PHBPU,[9]; rate 300 g/ha,75%
